From patent US20080269155A1, “REMEDY OR PREVENTIVE FOR KIDNEY DISEASE AND METHOD OF DIAGNOSING KIDNEY DISEASE” (TORAY INDUSTRIES INC., priority 2002, published 2008) come the findings set out here.

The test system of data set [1] is casein kinase 2 α subunit. Put plainly: Western blot of casein kinase 2 α subunit protein in kidney tissue of nephritis rats given oligonucleotides. The format is in vivo, rat. Particulars: 12 μg/day into kidney tissue by Alzet pump from one day before induction to 7th day. How it is done:
This example was carried out for studying the effect of administration of an antisense oligonucleotide against casein kinase 2 α subunit, so as to confirm the utility of the present invention. To rats (Wistar-Kyoto strain, male, body weight 190 to 210 g), rabbit anti-glomerular basement membrane antibody was intravenously administered (0.3 ml/kg) to induce nephritis. […] The nucleic acid molecules of the oligonucleotides were S-oligonucleotides containing phosphorothioate moieties, and a cationic liquid (Polyplus transfection) was used for making the uptake of the oligonucleotide easier. More particularly, the groups used in the experiment were normal group (normal rats to which the antisense oligonucleotide against casein kinase 2 α subunit and the antisense oligonucleotide were not administered, n=8), nephritis control group (nephritis rats to which the antisense oligonucleotide against casein kinase 2 α subunit and the antisense oligonucleotide were not administered, n=8), nephritis+antisense oligonucleotide against casein kinase 2 α subunit-administered group (group of the present invention, nephritis rats to which the antisense oligonucleotide against casein kinase 2 α subunit was administered, n=4), and nephritis+sense oligonucleotide of casein kinase 2 α subunit-administered group (negative control group, nephritis rats to which the sense oligonucleotide of casein kinase 2 α subunit was administered), totally four groups. On the 7th day from the induction, all rats were placed in metabolic cages, and urine excreted during 24 hours was collected and the amount of the urine was measured. The urine was then centrifuged at 3000 rpm for 15 minutes, and the urine protein in the supernatant was measured. Further, after the collection of urine, the kidneys were isolated, proteins were extracted from each kidney tissue by a conventional method, and the proteins (1 mg/ml, 20 μl) were electrophoresed (PAGERUN, ATTO, 40 mA, 84 min) on 12.5% polyacrylamide gel (PAGEL, ATTO). The electrophoresed proteins were blotted (100V, 90 min) on a PVDF membrane (Millipore). The membrane was blocked (Blocking Ace, Dainippon Pharmaceutical, 4° C., 1 hour), and washed three times (10 min) with PBS containing Tween 20. Then the membrane was incubated (at room temperature for 1 hour) with an anti-casein kinase 2 α subunit (originated from goat, Santa cruz, 100-fold diluted) as the primary antibody. […] After the incubation, the amounts of the casein kinase 2 α subunit protein were measured, respectively, using ECL reagent (Amersham). This measurement was carried out by taking photographs of the detected casein kinase 2 so as to make image files of the amount of the casein kinase 2 protein, and digitalizating the image file using a software NIH Image on Macintosh.

In data set [2] the test system is nephritis rat models. Put plainly: Nephritis rat model induced by anti-glomerular basement membrane antibody: kidney function markers and kidney pathology. The format is in vivo. Particulars: for urine protein: 24-hour urine on 7th day from induction.
Where [3] appears, read: oligonucleotide 12 μg/day into kidney tissue, FIG. 2.

As for “5′-TGGGGTATCAATCAAGATGATTAC-3′ (chemistry not given here) [negative control]”, the “Protein Amount Ratio of Casein Kinase 2 α Subunit” value in data set [1] (no-oligonucleotide kidney = 1) is recorded as “did not decrease”; in data set [1] (no-oligonucleotide kidney = 1, listed as Sense Oligonucleotide), 1.07. For the same compound, the urine protein entry in data set [2] (setting [3]) was “did not significantly decrease”.
As for `O=c1cc(-c2ccc(O)cc2)oc2cc(O)cc(O)c12` [apigenin], the urine protein entry in data set [2] (apigenin 20 mg/l kg body weight intraperitoneally once a day, FIG. 4) is given as “significantly decreased”.
On to `Cc1cc(O)c2c(c1)C(=O)c1cc(O)cc(O)c1C2=O` [3-methyl-1,6,8-trihydroxyanthraquinone], for which the blood creatinine level result in data set [2] (20 mg/l kg body weight intraperitoneally once a day, 14th day from induction, FIG. 6) was “almost normalized”. The urine protein result in data set [2] (20 mg/l kg body weight intraperitoneally once a day, FIG. 5) is “significantly decreased”. In addition, the “pathological finding of the kidney tissue” value in data set [2] (20 mg/l kg body weight intraperitoneally once a day, hematoxylin-eosin-stained specimens) was “improvements in the glomeruli and in the renal tubule interstitium were observed”.
For the compound “5′-GTAATCATCTTGATTACCCCA-3′ (chemistry not given here)”, the “Protein Amount Ratio of Casein Kinase 2 α Subunit” value is recorded as “prominently decreased” in data set [1] (no-oligonucleotide kidney = 1) and 0.45 in data set [1] (no-oligonucleotide kidney = 1, listed as Antisense Oligonucleotide). Also, the urine protein entry in data set [2] (setting [3]) is listed as “significantly decreased”.
